Experimental data published in patent US20250197420A1, “MACROCYCLIC COMPOUNDS, COMPOSITIONS, AND METHODS OF USING THEREOF” (Sionna Therapeutics Inc., priority 2022, published 2025).

Tests used:
[1] = target: T1, Purified recombinant NBD1 (Homo sapiens, UniProt P13569); assay: Aggregation analysis using differential static light scattering (DSLS): thermal stability of NBD1; type: binding; settings: NBD1 0.2 mg/ml; Tagg of compound well minus average Tagg of DMSO control wells
T1 construct: Purified recombinant NBD1 was produced using previously described methods; made in house
T1 sequence (P13569 423-646 limits assumed): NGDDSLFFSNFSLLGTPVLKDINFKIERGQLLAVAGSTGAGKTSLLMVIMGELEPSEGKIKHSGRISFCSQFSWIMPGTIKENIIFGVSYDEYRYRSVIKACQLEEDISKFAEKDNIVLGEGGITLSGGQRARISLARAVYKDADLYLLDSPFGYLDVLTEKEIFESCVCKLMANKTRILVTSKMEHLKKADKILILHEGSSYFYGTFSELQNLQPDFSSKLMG
Summary of the method: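 Recombinant NBD1 at 0.2 mg/ml in Tris/NaCl/MgCl2 buffer with 2 mM ATP, 2 mM DTT, 1% glycerol, pH 7.6, was incubated with compound and heated at 1 °C/min to 70 °C while static light scattering was monitored. Tagg was taken from the curve inflection point and reported as ΔTagg relative to DMSO controls.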

[2] = system: Primary human bronchial epithelial cells from a ΔF508 homozygous CF donor (CF-HBE cells); assay: TECC24 recording of CFTR-mediated transepithelial chloride transport, AUC fold over benchmark VX-809 @10 μM; type: cell-based; settings: 48 hours incubation, AUC of forskolin-stimulated IEQ
Summary of the method: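 CF-HBE cells on inserts were treated with compound for 48 h at 36.5 °C, then recorded in current-clamp with benzamil 10 μM, forskolin 10 μM, and finally CFTR inhibitor-172 20 μM in pH 7.4 Hepes saline. Equivalent Cl− current AUC between forskolin and inhibitor addition is expressed as a ratio to VX-809 AUC: A <3, B 3–6, C 6–20.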

SMILES	DSLS (ΔTagg) [1]	TECC (test agent AUC divided by VX-809 AUC) [2]
CN1CC(C)(C)CCCC(C)(c2ccccc2)c2cnc([nH]2)-c2cc(ccc2F)Oc2c(F)c(F)c3[nH]ccc3c2CCC1=O (centres unmarked) [Compound 71, 22,23,29-Trifluoro-6,10,10,12-tetramethyl-6-phenyl-25-oxa-3,12,20,31-tetrazapentacyclo[24.3.1.12,5.016,24.017,21]hentriaconta-1(30),2,4,16,18,21,23,26,28-nonaen-13-one]	A (an ΔTagg value less than or equal to 5 °C is marked “A”)	A (a TECC value less than 3 is marked “A”)
CN1Cc2c(c(F)cc3[nH]ccc23)Oc2ccc(F)c(c2)-c2ncc([nH]2)C(C)(c2cccc(CCC(=O)O)c2)CCCOCC(C)(C)C1=O (centres unmarked) [Compound 73, 3-[3-(23,29-difluoro-6,12,12,14-tetramethyl-13-oxo-10,25-dioxa-3,14,20,31-tetrazapentacyclo[24.3.1.12,5.016,24.017,21]hentriaconta-1(30),2,4,16,18,21,23,26,28-nonaen-6-yl)phenyl]propanoic acid]	C (a value greater than 10 °C and less than or equal to 25 °C is marked “C”)	B (a value between 3 and 6 is marked “B”)
CN1Cc2c(c(F)cc3[nH]ccc23)Oc2ccc(F)c(c2)-c2ncc([nH]2)C(C)(c2ccccc2)CCCOCC(C)(C)C1=O (centres unmarked) [Compound 74, 23,29-difluoro-6,12,12,14-tetramethyl-6-phenyl-10,25-dioxa-3,14,20,31-tetrazapentacyclo[24.3.1.12,5.016,24.017,21]hentriaconta-1(30),2,4,16,18,21,23,26,28-nonaen-13-one]	A (an ΔTagg value less than or equal to 5 °C is marked “A”)	A (a TECC value less than 3 is marked “A”)
CC1(c2cccc(CCC(=O)O)c2F)CCCCOC(=O)NCCc2c(c(F)cc3[nH]ccc23)Oc2ccc(F)c(c2)-c2ncc1[nH]2 (centres unmarked) [Compound 80, 3-[3-(23,29-Difluoro-6-methyl-12-oxo-11,25-dioxa-3,13,20,31-tetrazapentacyclo[24.3.1.12,5.016,24.017,21]hentriaconta-1(30),2,4,16,18,21,23,26,28-nonaen-6-yl)-2-fluoro-phenyl]propanoic acid]	C (a value greater than 10 °C and less than or equal to 25 °C is marked “C”)	B (a value between 3 and 6 is marked “B”)
CC1(c2cccc(CCC(=O)O)c2)CNC(=O)OCCCCc2c(c(F)cc3[nH]ccc23)Oc2ccc(F)c(c2)-c2ncc1[nH]2 (centres unmarked) [Compound 83, 3-[3-(22,28-Difluoro-6-methyl-9-oxo-10,24-dioxa-3,8,19,30-tetrazapentacyclo[23.3.1.12,5.015,23.016,20]triaconta-1(29),2,4,15,17,20,22,25,27-nonaen-6-yl)phenyl]propanoic acid]	A (an ΔTagg value less than or equal to 5 °C is marked “A”)	A (a TECC value less than 3 is marked “A”)
CN1CCCc2c(c(F)cc3[nH]ccc23)Oc2ccc(F)c(c2)-c2ncc([nH]2)C(C)(c2cccc(CCC(=O)O)c2)CCCOC1=O (centres unmarked) [Compound 84, 3-[3-(23,29-Difluoro-6,12-dimethyl-11-oxo-10,25-dioxa-3,12,20,31-tetrazapentacyclo[24.3.1.12,5.016,24.017,21]hentriaconta-1(30),2,4,16(24),17(21),18,22,26,28-nonaen-6-yl)phenyl]propanoic acid]	C (a value greater than 10 °C and less than or equal to 25 °C is marked “C”)	B (a value between 3 and 6 is marked “B”)
O=C(O)CCc1cccc(C2CCCCCNC(=O)OCc3c(c(F)cc4[nH]ccc34)Oc3ccc(F)c(c3)-c3ncc2[nH]3)c1F (centres unmarked) [Compound 85, 3-[3-(23,29-Difluoro-13-oxo-14,25-dioxa-3,12,20,31-tetrazapentacyclo[24.3.1.12,5.016,24.017,21]hentriaconta-1(30),2,4,16,18,21,23,26,28-nonaen-6-yl)-2-fluoro-phenyl]propanoic acid]	C (a value greater than 10 °C and less than or equal to 25 °C is marked “C”)	B (a value between 3 and 6 is marked “B”)
CC1(c2cccc(CCC(=O)O)c2)CCCCNC(=O)OCCc2c(c(F)cc3[nH]ccc23)Oc2ccc(F)c(c2)-c2ncc1[nH]2 (centres unmarked) [Compound 86, 3-[3-(23,29-Difluoro-6-methyl-12-oxo-13,25-dioxa-3,11,20,31-tetrazapentacyclo[24.3.1.12,5.016,24.017,21]hentriaconta-1(30),2,4,16(24),17(21),18,22,26,28-nonaen-6-yl)phenyl]propanoic acid]	C (a value greater than 10 °C and less than or equal to 25 °C is marked “C”)	C (a value between 6 and 20 is marked “C”)
CC1CCC(C)(c2cccc(CCC(=O)O)c2)c2cnc([nH]2)-c2cc(ccc2F)Oc2c(F)cc3[nH]ccc3c2CCNC(=O)OC1 (centres unmarked) [Compound 87, 3-[3-(23,29-Difluoro-6,9-dimethyl-12-oxo-11,25-dioxa-3,13,20,31-tetrazapentacyclo[24.3.1.12,5.016,24.017,21]hentriaconta-1(30),2,4,16(24),17(21),18,22,26,28-nonaen-6-yl)phenyl]propanoic acid]	C (a value greater than 10 °C and less than or equal to 25 °C is marked “C”)	B (a value between 3 and 6 is marked “B”)
CC1(C)CCCCC(C)(c2cccc(CCC(=O)O)c2)c2cnc([nH]2)-c2cc(ccc2F)Oc2c(F)cc3[nH]ccc3c2COC(=O)N1 (centres unmarked) [Compound 88, 3-[3-(23,29-Difluoro-6,11,11-trimethyl-13-oxo-14,25-dioxa-3,12,20,31-tetrazapentacyclo[24.3.1.12,5.016,24.017,21]hentriaconta-1(30),2,4,16,18,21,23,26,28-nonaen-6-yl)phenyl]propanoic acid]	C (a value greater than 10 °C and less than or equal to 25 °C is marked “C”)	B (a value between 3 and 6 is marked “B”)
CC1(C)CCCC(C)(c2cccc(CCC(=O)O)c2)c2cnc([nH]2)-c2cc(ccc2F)Oc2c(F)cc3[nH]ccc3c2CNC(=O)OC1 (centres unmarked) [Compound 89, 3-[3-(23,29-Difluoro-6,10,10-trimethyl-13-oxo-12,25-dioxa-3,14,20,31-tetrazapentacyclo[24.3.1.12,5.016,24.017,21]hentriaconta-1(30),2,4,16,18,21,23,26,28-nonaen-6-yl)phenyl]propanoic acid]	C (a value greater than 10 °C and less than or equal to 25 °C is marked “C”)	B (a value between 3 and 6 is marked “B”)
CC1(C)CCCC(C)(c2cccc(CCC(=O)O)c2)c2nnc([nH]2)-c2cc(ccc2F)Oc2c(F)cc3[nH]ccc3c2COC(=O)NC1 (centres unmarked) [Compound 90, 3-[3-(23,29-Difluoro-6,10,10-trimethyl-13-oxo-14,25-dioxa-3,4,12,20,31-pentazapentacyclo[24.3.1.12,5.016,24.017,21]hentriaconta-1(30),2,4,16(24),17(21),18,22,26,28-nonaen-6-yl)phenyl]propanoic acid]	C (a value greater than 10 °C and less than or equal to 25 °C is marked “C”)	B (a value between 3 and 6 is marked “B”)
CC1(C)CCCC(C)(c2ccccc2)c2nnc([nH]2)-c2cc(ccc2F)Oc2c(F)cc3[nH]ccc3c2COC(=O)NC1 (centres unmarked) [Compound 91, 23,29-Difluoro-6,10,10-trimethyl-6-phenyl-14,25-dioxa-3,4,12,20,31-pentazapentacyclo[24.3.1.12,5.016,24.017,21]hentriaconta-1(30),2,4,16(24),17(21),18,22,26,28-nonaen-13-one]	B (a value above 5 °C and less than or equal to 10 °C is marked “B”)	A (a TECC value less than 3 is marked “A”)
CC1(C)CCC(C)(c2cccc(CCC(=O)O)c2)c2cnc([nH]2)-c2cc(ccc2F)Oc2c(F)cc3[nH]ccc3c2CCOC(=O)NC1 (centres unmarked) [Compound 92, 3-[3-(23,29-Difluoro-6,9,9-trimethyl-12-oxo-13,25-dioxa-3,11,20,31-tetrazapentacyclo[24.3.1.12,5.016,24.017,21]hentriaconta-1(30),2,4,16(24),17(21),18,22,26,28-nonaen-6-yl)phenyl]propanoic acid]	C (a value greater than 10 °C and less than or equal to 25 °C is marked “C”)	C (a value between 6 and 20 is marked “C”)
CC1(C)CCCCC(C)(c2ccccc2)c2cnc([nH]2)-c2cc(ccc2F)Oc2c(F)cc3[nH]ccc3c2COC(=O)N1 (centres unmarked) [Compound 94, 23,29-Difluoro-6,11,11-trimethyl-6-phenyl-14,25-dioxa-3,12,20,31-tetrazapentacyclo[24.3.1.12,5.016,24.017,21]hentriaconta-1(30),2,4,16,18,21,23,26,28-nonaen-13-one]	B (a value above 5 °C and less than or equal to 10 °C is marked “B”)	A (a TECC value less than 3 is marked “A”)
Cn1nc2nc1-c1cc(ccc1F)Oc1c(F)cc3[nH]ccc3c1COC(=O)NC(C)(C)CCCCC2(C)c1ccccc1 (centres unmarked) [Compound 102, 23,29-difluoro-3,6,11,11-tetramethyl-6-phenyl-14,25-dioxa-3,4,12,20,31-pentazapentacyclo[24.3.1.12,5.016,24.017,21]hentriaconta-1(30),2(31),4,16,18,21,23,26,28-nonaen-13-one]	B (a value above 5 °C and less than or equal to 10 °C is marked “B”)	B (a value between 3 and 6 is marked “B”)
